Test results published in the CheMixHub viscosity set.

Experiment: xn = mol fraction of the nth substance listed

CC(C)CCCCCCCOC(=O)c1ccccc1C(=O)OCCCCCCCC(C)C + O
viscosity [mPa·s], 101 kPa
Conditions	293.23 K	298.26 K
x2 = 0.0005	122.8	87.79
x2 = 0.00265	122.3	87.38

CCOCCO + OCCO
Conditions	viscosity [mPa·s]
293.15 K, 101 kPa, x1 = 0.0582	18.48
293.15 K, 101 kPa, x1 = 0.0952	16.68
293.15 K, 101 kPa, x1 = 0.2037	11.81
293.15 K, 101 kPa, x1 = 0.3098	7.965
293.15 K, 101 kPa, x1 = 0.4062	5.445
293.15 K, 101 kPa, x1 = 0.4503	4.568
293.15 K, 101 kPa, x1 = 0.5003	3.813
293.15 K, 101 kPa, x1 = 0.5413	3.301
293.15 K, 101 kPa, x1 = 0.5988	2.777
293.15 K, 101 kPa, x1 = 0.6952	2.401
293.15 K, 101 kPa, x1 = 0.8031	2.264
293.15 K, 101 kPa, x1 = 0.9002	2.143
293.15 K, 101 kPa, x1 = 0.9508	2.121
293.15 K, 101.33 kPa, x2 = 0.0923	2.519
293.15 K, 101.33 kPa, x2 = 0.2349	3.38
293.15 K, 101.33 kPa, x2 = 0.3267	4.07
293.15 K, 101.33 kPa, x2 = 0.4103	4.91
293.15 K, 101.33 kPa, x2 = 0.4957	6.008
293.15 K, 101.33 kPa, x2 = 0.5486	6.84
293.15 K, 101.33 kPa, x2 = 0.6451	8.722
293.15 K, 101.33 kPa, x2 = 0.7319	10.9
293.15 K, 101.33 kPa, x2 = 0.7782	12.29
293.15 K, 101.33 kPa, x2 = 0.8336	14.04
293.15 K, 101.33 kPa, x2 = 0.9075	16.88
293.15 K, 101.33 kPa, x2 = 0.9556	19.08
298.15 K, 101 kPa, x1 = 0.0423	15.82
298.15 K, 101 kPa, x1 = 0.1127	13.26
298.15 K, 101 kPa, x1 = 0.1983	10.12
298.15 K, 101 kPa, x1 = 0.2953	7.192
298.15 K, 101 kPa, x1 = 0.3988	4.883
298.15 K, 101 kPa, x1 = 0.4532	4.022
298.15 K, 101 kPa, x1 = 0.5005	3.474
298.15 K, 101 kPa, x1 = 0.5429	3.085
298.15 K, 101 kPa, x1 = 0.593	2.739
298.15 K, 101 kPa, x1 = 0.6905	2.349
298.15 K, 101 kPa, x1 = 0.8044	2.188
298.15 K, 101 kPa, x1 = 0.8963	2.021
298.15 K, 101 kPa, x1 = 0.9496	1.94
303.15 K, 101 kPa, x1 = 0.0596	12.4
303.15 K, 101 kPa, x1 = 0.1011	11.29
303.15 K, 101 kPa, x1 = 0.1976	8.571
303.15 K, 101 kPa, x1 = 0.3002	5.937
303.15 K, 101 kPa, x1 = 0.3989	4.122
303.15 K, 101 kPa, x1 = 0.4504	3.447
303.15 K, 101 kPa, x1 = 0.4926	2.988
303.15 K, 101 kPa, x1 = 0.5502	2.554
303.15 K, 101 kPa, x1 = 0.6034	2.237
303.15 K, 101 kPa, x1 = 0.7013	1.974
303.15 K, 101 kPa, x1 = 0.8026	1.954
303.15 K, 101 kPa, x1 = 0.8923	1.933
303.15 K, 101 kPa, x1 = 0.9401	1.883
